Data: patent US20260048051A1, “TREATMENT OF INFLAMMATORY BOWEL DISEASE” (Atomwise Inc., priority 2024, published 2026)
“Also recorded” adds a separate entry of the source. Where two headings read alike, the source gives them in different places.

Legend:
IFNα/pSTAT5 = assay: Whole blood potency (IFNα/pSTAT5), mouse; type: cell-based; conditions: read-out: Cellular Whole Blood Potency IC50 (IFNα/pSTAT5), Mouse
Description: Exemplary compounds of the invention, compounds 1 and 2 were compared in this assay.

[1] = tested on: anti-CD40-induced inflammatory bowel disease (IBD); assay: Anti-CD40-induced mouse model of inflammatory bowel disease (IBD); type: in vivo, RAGN12 mice; conditions: for colon histopathology scores / colon weight-to-length ratio: 7-day anti-CD40 IBD model
Description: This study was conducted in accordance with the Inotiv Boulder test facility standard operating procedures (SOPs), the World Health Organization Quality Practices in Basic Biomedical Research guidelines, and in compliance with all state and federal regulations, including USDA Animal Welfare Act 9 CFR Parts 1-3. Federal Register 39129, Jul. 22, 1993. This study was conducted in accordance with The Guide for the Care & Use of Laboratory Animals (8th Edition) and therefore in accordance with all Inotiv Boulder IACUC approved policies.
Prior to the start of the study, 6-7 week old, RAGN12 mice (Taconics) were acclimated for approximately 4 days. On study day −1, mice were weighed and randomized into treatment groups based on body weight. On study day 0, 200 μg of anti-CD40 monoclonal antibody (BioXcell) was administered intraperitoneally to induce disease. Test articles were dosed orally BID (the exception was the known TYK2 inhibitor at 3 mpk, which was dosed QD, with vehicle administered as the second daily dose). Bodyweight was measured daily on study days 1-6.
On day 7, the study was terminated; mice were anesthetized with Isoflurane and bled to exsanguination followed by cervical dislocation. The entire colon was removed, measured, and weighed. The plasma (for PK) and colon (for histology and cytokine measurements) samples were collected. Histopathology samples were evaluated for edema, inflammation (extent of macrophage, lymphocyte and polymorphonuclear (PMN) cell infiltration), gland loss, erosion, and hyperplasia.
Overall efficacy of test articles is based on a ratio of colon weight to length, and colon histopathology (FIGS. 6A and 6B). Additional readouts of the model support activity of an exemplary compound in IBD (FIG. 6C-6I).

Mouse colon distribution = type: in vivo; conditions: colon / plasma, read-out: Colon/Plasma Ratio at 12 h
TYK2-JH2 = molecular target: T1, TYK2-JH2 (Homo sapiens, UniProt P29597); assay: TYK2-JH2 HTRF binding assay (ligand efficiency); conditions: calculated from binding-assay IC50 (Equation 1)
T1 construct: TYK JH2 enzyme mix (ChemPartner: CP20210818A-BV); purchased ChemPartner CP20210818A-BV
T1 sequence (P29597 589-875 limits assumed): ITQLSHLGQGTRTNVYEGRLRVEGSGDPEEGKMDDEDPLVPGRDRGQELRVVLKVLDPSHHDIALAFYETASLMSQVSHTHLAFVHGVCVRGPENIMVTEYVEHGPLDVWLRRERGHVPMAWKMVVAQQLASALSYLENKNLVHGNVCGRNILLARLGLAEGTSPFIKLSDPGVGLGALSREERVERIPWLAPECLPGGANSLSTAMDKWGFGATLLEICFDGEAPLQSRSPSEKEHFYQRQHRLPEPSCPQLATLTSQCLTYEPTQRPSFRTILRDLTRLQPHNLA
Method in brief: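 HTRF competition binding: 0.5 nM His-tagged TYK2 JH2 preincubated 10 min at room temperature with compound (final 0.1 to 0.000005 μM), then 35 nM tracer and anti-6HIS Tb cryptate added for 60 min. Buffer 20 mM HEPES pH 7.5, 10 mM MgCl2, 0.01% Triton X-100, 1 mM DTT; TR-FRET Ex340/Em495/520. Ligand efficiency derived from binding IC50.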

[2] = Mouse plasma pharmacokinetics, PO 5 mg/kg; type: in vivo
Description: The following example describes the methods used to evaluate the pharmacokinetics of TYK2 inhibitors in vivo following dosing of a compound of the invention.
The pharmacokinetics of test compounds were evaluated in either male CD-1 mice or male C57BL/6 mice when administered by oral gavage and IV bolus injection. The animals were allowed free access to food and water before administration. The plasma samples were analyzed by LC-MS/MS and the concentration of test compound at each time point was determined by linear regression. Pharmacokinetic parameters were calculated from the plasma concentrations by non-compartmental modeling using WinNonlin 8.2.
Oral composition. To prepare a pharmaceutical composition for oral delivery, the test articles described herein were dissolved in DMSO and then mixed with necessary volume of PEG400 followed by […] in water or 50% Kolliphor HS 15 in saline to provide the final concentrations of 0.5 mg/mL or 1 mg/mL (Table 8). The resultant mixtures were suitable for oral administration.
The PK parameters measured in mouse plasma after treatment with TYK2 inhibitor compounds via PO (oral administration) at 5 mg/kg are summarized below in Tables 9-11.

[3] = Brain exposure pharmacokinetics in rats; type: in vivo; conditions: male Sprague Dawley rats, oral gavage 10 mg/kg
Description: The brain exposure of exemplary compounds, e.g., 1, 2, and 4 were evaluated in male Sprague Dawley rats after oral gavage administration at 10 mg/kg. The formulation was 5% DMSO+10% PEG400 in saline. Rats were fasted overnight with food returned 4 hours post-dose. CSF was collected by direct needle puncture into the cisterna magna.
For both rat and mouse studies, brain tissue was washed with 3 volumes of saline prior to homogenization. Brain tissue was homogenized with 3 volumes (v/w) of phosphate buffered saline. Plasma, brain homogenate, and CSF samples (rat only) were analyzed by LC-MS/MS and the concentration of test compound at each time point was determined by linear regression.
Pharmacokinetic parameters were calculated from the plasma, brain, and CSF concentrations by non-compartmental modeling using WinNonlin 8.2.

[4] = GLP in vivo assay of genotoxicity

| SMILES | IC50 (IFNα/pSTAT5) | colon histopathology scores [1] | colon weight-to-length ratio [1] | colon weight:length, efficacious dose ([1]; anti-CD40 IBD model) | Kp at 12 h (Mouse colon distribution; PO 10 mg/kg) | Kp at 12 h (Mouse colon distribution; PO 50 mg/kg) | Kp at 12 h (Mouse colon distribution; PO 200 mg/kg) | Ligand Efficiency (TYK2-JH2) | Half-life (t1/2) [2] | Maximum plasma concentration (Cmax) [2] | Total systemic exposure (AUCinf) [2] | Brain Kpu, u [3] | genotoxicity [4] | genotoxicity ([4]; listed as compound 2) |
| --- | --- | --- | --- | --- | --- | --- | --- | --- | --- | --- | --- | --- | --- | --- |
| C[C@@H](c1ccc(Nc2cc(Nc3ncccc3S(C)(=O)=O)ncn2)nc1)N1CC2(COC2)C1 [Compound 1, (S)—N^4-(5-(1-(2-oxa-6-azaspiro[3.3]heptan-6-yl)ethyl)pyridin-2-yl)-N^6-(3-(methylsulfonyl)pyridin-2-yl)pyrimidine-4,6-diamine] | 116 nM | inhibition | inhibition | 200 mpk | 50 | 33 | 25 | ††† (†††: >0.39) | †† (††: 1.0-1.5) | † (†: <800) | †† (††: 1000-2000) | †† (†† 0.1-0.2 u) |  |  |
| C[C@@H](c1ccc(Nc2cc(Nc3ncc(F)cc3S(C)(=O)=O)ncn2)nc1)N1CC2(COC2)C1 [Compound 2, (S)—N^4-(5-(1-(2-oxa-6-azaspiro[3.3]heptan-6-yl)ethyl)pyridin-2-yl)-N^6-(5-fluoro-3-(methylsulfonyl)pyridin-2-yl)pyrimidine-4,6-diamine] | 64.3 nM | inhibition | inhibition |  | 24 | 13 | 7.4 | ††† (†††: >0.39) | †† (††: 1.0-1.5) | ††† (†††: >1500) | ††† (†††: >2000) | † († <0.1 u) | substantially no genotoxicity; also recorded: virtually no genotoxicity | substantially non-genotoxic |
